Patent publication US8178530B2, “Imidazolopyrazine compounds useful for the treatment of degenerative and inflammatory diseases” (Janssen Pharmaceutica NV, priority 2006, dated 2012)

How the values were obtained:
[1] = test system: MMP1 expression by SFs; assay: 'MMP assay': MMP1 expression by 'complex trigger' activated synovial fibroblasts (MMP1 ELISA); type: cell-based, human; settings: Homo sapiens, Fibroblast, RASFs, 48 hrs
[2] = molecular target: T1, MAPKAPK5 (Homo sapiens, UniProt Q8IW41); assay: MAPKAP-K5 assay (FlashPlate, 33P-ATP); type: biochemical; settings: 0.6 μM ATP, 30 minutes at room temperature
T1 construct: 1 mU MAPKAP-K5
T1 sequence (Q8IW41 1-473): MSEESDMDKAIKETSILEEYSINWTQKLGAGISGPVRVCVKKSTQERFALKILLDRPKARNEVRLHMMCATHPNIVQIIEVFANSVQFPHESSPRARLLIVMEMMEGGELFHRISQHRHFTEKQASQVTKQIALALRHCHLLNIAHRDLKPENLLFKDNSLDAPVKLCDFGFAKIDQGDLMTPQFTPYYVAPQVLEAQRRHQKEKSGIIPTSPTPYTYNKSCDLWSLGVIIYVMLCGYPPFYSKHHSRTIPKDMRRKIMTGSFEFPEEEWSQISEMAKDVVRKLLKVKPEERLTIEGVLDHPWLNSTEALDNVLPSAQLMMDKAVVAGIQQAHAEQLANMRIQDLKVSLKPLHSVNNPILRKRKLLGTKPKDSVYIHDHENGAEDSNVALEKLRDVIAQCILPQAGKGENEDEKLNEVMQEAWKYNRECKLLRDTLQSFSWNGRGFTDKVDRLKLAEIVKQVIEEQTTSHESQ
Experimental: 3 μM MAPKAP-K5 peptide substrate

| Compound | IC50 [2] [nM] | EC50 [1] [nM] |
| --- | --- | --- |
| COc1cc(Nc2ncc(-c3cn[nH]c3)n3ccnc23)ccc1C(=O)NCc1ccccc1 [Compound 182] | > 1000 | > 1000 |
| O=C(Nc1ccc(Nc2ncc(-c3cn[nH]c3)n3ccnc23)cn1)c1ccccc1 [Compound 183, N-{5-[5-(1H-Pyrazol-4-yl)imidazopyrazin-8-ylamino]pyridin-2-yl}benzamide] | > 1000 | 101 to 500 |
| COc1cc(Nc2ncc(-c3csc(C(N)=O)c3)n3ccnc23)ccc1C(=O)NCc1ccc(C)nc1 [Compound 190, 4-(8-{3-Methoxy-4-[(6-methylpyridin-3-ylmethyl)carbamoyl]phenylamino}imidazo[1,2-a]pyrazin-5-yl)thiophene-2-carboxylic acid amide] | > 1000 | 101 to 500 |
| COc1cc(Nc2ncc(-c3csc(C(N)=O)c3)n3ccnc23)ccc1C(=O)NCc1ccccc1 [Compound 191] | > 1000 | > 1000 |
| NC(=O)c1cc(-c2cnc(Nc3ccc(C4CCN(CC(F)(F)F)CC4)cc3)c3nccn23)cs1 [Compound 194] | > 1000 | 501 to 1000 |
| NC(=O)c1cc(-c2cnc(Nc3ccc(NC(=O)c4ccccc4)nc3)c3nccn23)cs1 [Compound 195] | > 1000 | > 1000 |
| FC(F)(F)CN1CCC(c2ccc(Nc3ncc(-c4cn[nH]c4)n4ccnc34)cc2)CC1 [Compound 196] | > 1000 | > 1000 |
| O=C(Cc1ccccc1)Nc1ccc(Nc2ncc(-c3cn[nH]c3)n3ccnc23)cn1 [Compound 200, 2-Phenyl-N-{5-[5-(1H-pyrazol-4-yl)imidazo[1,2-a]pyrazin-8-ylamino]pyridin-2-yl}acetamide] | > 1000 | 101 to 500 |
| Nc1ccc(Nc2ncc(-c3cn[nH]c3)n3ccnc23)cn1 [Compound 207] | 501 to 1000 | > 1000 |
| c1cn2c(-c3cn[nH]c3)cnc(Nc3ccc(N4CCOCC4)cn3)c2n1 [Compound 208, N-(5-Morpholinopyridin-2-yl)-5-(1H-pyrazol-4-yl)imidazo[1,2-a]pyrazin-8-amine] | > 1000 | > 1000 |
| N#Cc1[nH]ncc1-c1cnc(Nc2ccc(N3CCOCC3)cc2)c2nccn12 [Compound 212, 4-[8-(4-Morpholin-4-yl-phenylamino)-imidazo[1,2-a]pyrazin-5-yl]-2H-pyrazole-3-carbonitrile] | 101 to 500 | 101 to 500 |
| O=C1NCc2cc(-c3cnc(Nc4ccccc4)c4nccn34)ccc21 [Compound 213] | 101 to 500 | 101 to 500 |
| O=C1NCc2cc(-c3cnc(Nc4cnc(N5CCOCC5)nc4)c4nccn34)ccc21 [Compound 215] | 101 to 500 | > 1000 |
| NC(=O)c1c(F)cc(-c2cnc(Nc3ccc(OCCN4CCOCC4)cc3)c3nccn23)cc1F [Compound 216] | 501 to 1000 | > 1000 |
| NC(=O)CN1CCC(c2ccc(Nc3ncc(-c4cn[nH]c4)n4ccnc34)cc2)CC1 [Compound 224, 2-(4-{4-[5-(1H-Pyrazol-4-yl)imidazo[1,2-a]pyrazin-8-ylamino]phenyl}piperidin-1-yl)acetamide] | 501 to 1000 | > 1000 |
| Cc1n[nH]cc1-c1cnc(Nc2ccc(C3CCN(CC(N)=O)CC3)cc2)c2nccn12 [Compound 225, 2-(4-{4-[5-(3-Methyl-1H-pyrazol-4-yl)imidazo[1,2-a]pyrazin-8-ylamino]phenyl}piperidin-1-yl)acetamide] | 501 to 1000 | > 1000 |
| NC(=O)CN1CCC(c2ccc(Nc3ncc(-c4ccc5c(c4)CNC5=O)n4ccnc34)cc2)CC1 [Compound 226, 2-(4-{4-[5-(1-Oxo-2,3-dihydro-1H-isoindol-5-yl)-imidazo[1,2-a]pyrazin-8-ylamino]-phenyl}piperidin-1-yl)acetamide] | 101 to 500 | > 1000 |

Further lines, with some results ahead:

| IC50 [2] [nM] | Compound | EC50 [1] [nM] |
| --- | --- | --- |
| > 1000 | Cc1cc(-c2cnc(Nc3ccc(N4CCOCC4)cc3)c3nccn23)ccc1C(N)=O [Compound 185] | 501 to 1000 |
| 101 to 500 | CC(C)N1CCC(c2ccc(Nc3ncc(-c4csc(C(N)=O)c4)n4ccnc34)cc2)CC1 [Compound 199, 4-{8-[4-(1-Isopropylpiperidin-4-yl)phenyl-amino]imidazo[1,2-a]pyrazin-5-yl}thiophene-2-carboxylic acid amide] | 101 to 500 |
| 501 to 1000 | CC(C)N1CCN(c2ccc(Nc3ncc(-c4cn[nH]c4)n4ccnc34)cn2)CC1 [Compound 201, [6-(4-Isopropylpiperazin-1-yl)pyridin-3-yl]-[5-(1H-pyrazol-4-yl)-imidazo[1,2-a]pyrazin-8-yl]amine] | > 1000 |
| 101 to 500 | CC(C)N1CCC(c2ccc(Nc3ncc(-c4cn[nH]c4)n4ccnc34)cc2)CC1 [Compound 202, [4-(1-Isopropylpiperidin-4-yl)phenyl]-[5-(1H-pyrazol-4-yl)imidazo[1,2-a]pyrazin-8-yl]amine] | > 1000 |
| 1 to 100 | CC(C)N1CCC(c2ccc(Nc3ncc(-c4ccc5c(c4)CNC5=O)n4ccnc34)cc2)CC1 [Compound 206, 5-{8-[4-(1-Isopropylpiperidin-4-yl)phenylamino]-imidazo[1,2-a]pyrazin-5-yl}-2,3-dihydroisoindol-1-one] | > 1000 |
| 101 to 500 | CC(C)N1CCN(c2ccc(Nc3ncc(-c4coc(C(N)=O)c4)n4ccnc34)cn2)CC1 [Compound 209, 4-{8-[6-(4-Isopropyl-piperazin-1-yl)-pyridin-3-ylamino]-imidazo[1,2-a]pyrazin-5-yl}-furan-2-carboxylic acid amide] | > 1000 |
| 101 to 500 | O=C1NCc2cc(-c3cnc(Nc4ccc(N5CCOCC5)cn4)c4nccn34)ccc21 [Compound 211] | > 1000 |
| 1 to 100 | O=C1NCc2cc(-c3cnc(Nc4ccc(N5CCOCC5)nc4)c4nccn34)ccc21 [Compound 214] | > 1000 |
| 101 to 500 | O=C1NCc2oc(-c3cnc(Nc4ccc(N5CCOCC5)cc4)c4nccn34)cc21 [Compound 217, 2-[8-(4-Morpholin-4-yl-phenylamino)-imidazo[1,2-a]pyrazin5-yl]-5,6-dihydro-furo[2,3-c]pyrrol-4-one] | > 1000 |
| 101 to 500 | CC(C)N1CCN(c2ncc(Nc3ncc(-c4ccc5c(c4)CNC5=O)n4ccnc34)cn2)CC1 [Compound 219] | 501 to 1000 |
| 1 to 100 | CC(C)N1CCN(c2ccc(Nc3ncc(-c4cc(F)c5c(c4)CNC5=O)n4ccnc34)cc2)CC1 [Compound 220, 7-Fluoro-5-{8-[4-(4-isopropyl-piperazin-1-yl)phenylamino]imidazo[1,2-a]pyrazin-5-yl}-2,3-dihydroisoindol-1-one] | > 1000 |
| 101 to 500 | CC(C)N1CCN(c2ccc(Nc3ncc(-c4cc5c(o4)CNC5=O)n4ccnc34)cc2)CC1 [Compound 222] | 501 to 1000 |
| > 1000 | CC(C)N1CCN(c2ccc(Nc3ncc(-c4ccc5c(c4)C(C)(C)NC5=O)n4ccnc34)cc2)CC1 [Compound 227] | > 1000 |
